Patent US8148320B2, “Peptide inhibitors of ABL kinases” (New York Blood Center, Inc., priority 2005, dated 2012)
“Also recorded” adds a separate entry of the source. Where two headings read alike, the source gives them in different places. Blank lines part the entries; values can stand above or below the substance they belong to. Where no end group is shown, it is not given here.

Tests used:
c-AbI kinase = c-AbI kinase assay with biotinylated model substrate peptide and 32P-γ-ATP; assay type: biochemical; details: for Fold Change (PEP): Vmax relative to PEP
Experimental: (§1) AbI kinase. His-tagged, uncapped active c-AbI, E46 through C-terminus (isoform 1b) (kind gift of Tony Koleske, Yale University, New Haven, Conn.), was produced and purified from baculovirus as described (Tanis et al., 2003) following treatment of insect cells with 30 μM STI-571 (Novartis Pharma AG, Basel, Switzerland) for 48 hrs prior to cell lysis. The expressed protein was affinity purified on nickel-nitriloacetic acid agarose, washed to remove the inhibitor, and subsequently purified by ion-exchange chromatography using a Mono S column (Amersham Biosciences, Piscataway, N.J.). GST fusions of c-AbI SH2 domain wild type and SH2 domain containing the R171K mutation, and mammalian expression plasmid containing c-AbI-GST (isoform 1b, with the GST at the C-terminus) were obtained from Bruce Mayer (University of Connecticut Health Center, Farmington, Conn.).
Kinase assay. Measurement of kinase activity was essentially as described in (Tanis et al., 2003), using biotinylated model substrate peptide GGEAIYAAPFKK (SEQ ID NO: 16), (Brasher and Van Etten, 2000; Songyang et al., 1995) and ^32P-γ-ATP. SAM2 streptavidin-coated membrane (Promega Corφoration, Madison Wis.) was used to capture the substrate. Kinase assay mixtures contained 50 mM Tris-HCI pH 7.5, 10 mM MgCl2, 1 mM EGTA, 2 mM dithiothreitol, 0.01% Brij 35, and 100 μM ATP, 2 nM AbI kinase, substrate peptides, and Abil ligand peptides as indicated. Reactions were carried out for 5 min. at 30° C. To evaluate c-AbI kinase activity in LnCAP cell lines, cells were treated with pervanadate for 10 min. prior to cell lysis, and immunoprecipitates from lysed cells were tested using GST-Crk as substrate.

AbI SH2 domain = biological target: T1, AbI SH2 domain (Homo sapiens, UniProt P00519); assay: Surface plasmon resonance (Biacore) binding of biotinylated Abi1 peptides to GST-tagged AbI SH2 domain
T1 construct: GST-tagged AbI SH2 domain; gift of Bruce Mayer (University of Connecticut Health Center)
T1 sequence (P00519 127-217 limits assumed): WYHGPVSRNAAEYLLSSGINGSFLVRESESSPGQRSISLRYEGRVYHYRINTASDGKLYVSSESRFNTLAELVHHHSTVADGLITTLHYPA
Experimental: as §1
Surface Plasmon Resonance Assay. Surface plasmon resonance assay was performed using a Biacore 3000 instrument (BlAcore Inc., Piscataway, N.J.). Biotinylated 14-residue peptides, pY213 or Y213, were coupled to surface of streptavidin-coated (SA) biosensor chip (BIAcore Inc., Piscataway, N.J.). […] Sensograms (plots of changes in response unit on the surface as a function of time) derived were analyzed using the software BIAeval 3.0. […]

[1] = concentrations lower than 2 mM, 100 μM substrate peptide
[2] = peptide concentration 2 mM, 100 μM substrate peptide
[3] = increasing peptide concentrations, 100 μM substrate peptide

Km (c-AbI kinase; Km of substrate peptide PEP alone): 21.2 ± 3.37 µM
Fold Change (PEP) (c-AbI kinase; PEP alone): 1.00
Vmax (c-AbI kinase; substrate peptide PEP alone, no Abi1 peptide, mean ± s.d., n=3): 157.79 ± 9.29 pmol/min-μg
Substance: GGEAIYAAPFKK (also: biotinylated, site not given here) [PEP, reference compound]

Kd (in words) (AbI SH2 domain; GST-SH2, Biacore, data not shown): low millimolar range
effect on c-AbI kinase activity (in words) (c-AbI kinase): showed inhibition
effect on c-AbI kinase activity (in words) (c-AbI kinase; [1]): no inhibition was observed
effect on c-AbI kinase activity (in words) (c-AbI kinase; peptide 1.5 mM): decrease of activity
effect on c-AbI kinase activity (in words) (c-AbI kinase; peptide 0.75 to 1.25 mM): increased the kinase activity
effect on c-AbI kinase activity (in words) (c-AbI kinase; peptide 1.75 and 2 mM): inhibition
effect on c-AbI kinase activity (in words) (c-AbI kinase; [2]): enhanced the inhibitory effect
Substance: GTLSRTNPLTQKPPSPPMSGRGTLGRNTPYKTLEPVKPPTVPNDpYMTSP [Pro-pY213]

effect on c-AbI kinase activity (in words) (c-AbI kinase; [3]): effect was lost
Substance: Pro-F198: Abi1 peptide spanning residues 169-203 with Y198 to F198 replacement (GTLSRTNPPTQKPPSPPMSGRGTLGRNTPFKTLEP; UniProt Q8IZP0 169-203, looked up, variant Y198F)

effect on c-AbI kinase activity (in words) (c-AbI kinase; [3]): increased inhibition
Substance: Pro-Y198: Abi1 peptide spanning residues 169-203, with PXXP motif PPSPP and Y198, excludes pY213 sequence

Vmax (c-AbI kinase; Abi1 peptide at 2 mM, 5-min assay, increasing substrate peptide, mean ± s.d., n=3): 2.90 ± 1.16 pmol/min-μg
Km (c-AbI kinase; Km of substrate peptide, Abi1 peptide at 2 mM): 16.3 ± 0.6 µM
Km (c-AbI kinase; Km of substrate peptide, Y213 at 0.1): 14.9 ± 2.74 µM
Km (c-AbI kinase; Km of substrate peptide, Y213 at 0.25): 16.5 ± 7.29 µM
Fold Change (PEP) (c-AbI kinase; Abi1 peptide at 2 mM): 0.018
Fold Change (PEP) (c-AbI kinase; Y213 at 0.1): 0.71
Fold Change (PEP) (c-AbI kinase; Y213 at 0.25): 0.55
Vmax (c-AbI kinase; Y213 peptide at 0.1 (mM)): 112.11 ± 7.80 pmol/min-μg
Vmax (c-AbI kinase; Y213 peptide at 0.25): 86.68 ± 19.71 pmol/min-μg
Substance: Y213: 14-residue Abi1 peptide containing nonphosphorylated tyrosine 213 (VKPPTVPNDYMTSP; not fully specified) [Peptide Y213]
effect on c-AbI kinase activity (in words) (c-AbI kinase): showed inhibition; also recorded: most potent inhibition
effect on c-AbI kinase activity (in words) (c-AbI kinase; [1]): significant kinase inhibition at lower concentrations than the pY213 peptide
effect on c-AbI kinase activity (in words) (c-AbI kinase; [2]): more significant reduction of the kinase activity than pY213

Kd (AbI SH2 domain; peptide on SA chip, varying AbI SH2 concentration, 1:1 binding model, read-out: dissociation constant, KD): 33.2 nM
Substance: pY213: 14-residue Abi1 peptide containing phosphorylated tyrosine 213; Abi1 14-mer sequence vkpptvpndymtsp (SEQ ID NO:5) (VKPPTVPNDYMTSP)
